What is called MIC is the least concentration at which growth counts as inhibited.

Converted amounts (≈) assume the structure as drawn. Read-outs that look alike come from different tables or passages of the source.

Assay [1] deals with Bacillus subtilis DSM 10. Put plainly: Antimicrobial serial dilution assay (MIC). In kind it is cell-based. Conditions: overnight. On the procedure:
(§1) Antimicrobial activity was determined by our established protocol, according to Becker et al.. In general, all of the pure compounds were dissolved in MeOH with a concentration of 1 mg/mL. Assessment of the antimicrobial activity was determined using the serial dilution assay method to calculate the minimum inhibitory concentration (MIC). In this method, the compounds were diluted in a range between 67 and 0.5 µg/mL in 96 well-plate and incubated with the test organism overnight. The next day, growth of the test organisms was visually observed, and MIC was determined in the lowest concentration where a clear zone (no growth of test organism) was observed. In our attempt for novel anti-infective compounds, an established standard protocol using various organisms representing a broad spectrum of pathogens of clinical interest, as well as sensitive indicator strains, was used (bacteria: Bacillus subtilis DSM 10, Staphylococcus aureus DSM 346, Acinetobacter baumanii DSM 30008, Chromobacterium violaceum DSM 30191, Escherichia coli DSM 1116 and Pseudomonas aeruginosa PA14; mycobacteria: Mycobacterium smegmatis ATCC 700084 and fungi: Candida albicans DSM 1665, Schizosaccharomyces pombe DSM 70572, Mucor hiemalis DSM 2656, Wickerhamomyces anomala DSM 6766 and Rhodotorula glutinis DSM 10134). Methanol as a solvent to dissolve the pure compounds was used as the negative control. Oxytetracycline, ciprofloxacin, gentamycin, and kanamycin were used as positive controls against bacteria, whereas nystatin was used against fungi. A detailed experimental procedure can be found in the SI.
(§2) Protocol: Antimicrobial Activity Assay
(§3) The assay was conducted as a minimum inhibitory concentration (MIC) assay in 96-well round- bottom microtiter plates using the parameters summarized in Table S1 and as already described in [S1]. Stocks of the test organisms were generated by growing the organisms overnight in 50 mL shaking flasks filled with 25 mL of the growth medium at 140r p m ( media and temperatures see Table S1). If the organisms were well grown the next day, which was checked by the occurrence of an optical density (OD) […] of the suspension (OD600 nm for bacteria, OD548 nm for fungi and M. smegmatis), aliquots of these were stored in 1.5 mL reaction tubes in a freezer at −80 °C for up to 12 months. Upon use, aliquots were unthawed and the OD of the suspension measured and adjusted by diluting with the respective growth medium. OD600 nm was adjusted to 0.01 and OD548 nm to 0.1. Subsequently, 150 μ L of the adj usted suspensions were added to all wells of a 96-well microtiter plate (one test organism per plate). In row A, additional 130 μ L of suspensions plus 20 μ L of the test compounds (1 mg/mL) and the controls (one compound/column) were added. MeOH was used as negative controls, while different positive controls (references) were used for the test organisms (see Table S1). Then, starting from row A, 150 μ L of t he suspension were transferred to the next row, the contents thoroughly mixed, and 150 μ L transferred to the following row. The remaining 150 μ L after row H were discarded. […]
(§4) of the test compounds, ranging from 66.7 μg/mL in row A to 0.52 μ g/mL in row H. The microtiter plates were then incubated overnight on a microplate shaker at 800 rpm at 30 or 37 °C (see Table S1) and were visually evaluated the next day. The MIC is defined as the lowest concentration where no growth of the test organism (clear zone) was observed. A lower MIC thus corresponds to a higher antimicrobial activity of the test compound.
Table S1: MIC assay experiment parameters test organism strain No growth incubation positive control
Bacillus subtilis DSM10 MHB1 30 oxytetracyclin 1.0mg/ mL […]
(§5) Candidaa lbicans DSM1665 MYC3 30 nystatin 1.0mg/ mL
(§6) Schizosaccharomyces DSM70572 MYC3 30 nystatin 1.0mg/ mL
(§7) Mucor hiemalis DSM2656 MYC3 30 nystatin 1.0mg/ mL
(§8) Wickerhamomyces DSM6766 MYC3 30 nystatin 1.0mg/ mL
(§9) Rhodotorula glutinis DSM10134 MYC3 30 nystatin 1.0mg/ mL […]

Assay [2] deals with Escherichia coli. Description: Antimicrobial serial dilution assay (MIC). Type of assay: cell-based. Conditions: serial dilution 67 to 0.5 µg/mL, overnight. The method, then: as §1, §2, §3, §4
Table S1: MIC assay experiment parameters test organism strain No growth incubation positive control […]
Escherichia coli DSM1116 MHB1 37 oxytetracyclin 1.0mg/ mL […]
as §5, §6, §7, §8, §9

The mark [3] stands for this setting: serial dilution 67 to 0.5 µg/mL.

Take `CC(=O)OC(C(=O)O)C(C)C1C(C)=CC2CC(C)CCC2C1(C)C(O)=C1C(=O)C(C)N(C)C1=O` (stereo not shown) [compound 1, Colposetin A]: the minimal inhibitory concentration (MIC) entry in assay [1] (setting [3]) and in assay [2] was “n.i” each time.

Take `CCC(C(=O)O)C1C(C)=CC2CC(C)CCC2C1(C)C(O)=C1C(=O)C(C)N(C)C1=O` (stereo not shown) [compound 2, Colposetin B]: the MIC in assay [1] (DSM10, serial dilution 67 to 0.5 µg/mL, read-out: MIC) was 67 µg/mL (≈ 160 µM); in assay [2], “n.i”.

`CC1=CC2CC(C)CCC2C2(C)C(=O)OC(C(=O)O)C(C)C12` (stereo not shown) [compound 3, Colposetin C]: the minimum inhibitory concentration (MIC) entry in assay [1] (setting [3]) and in assay [2] was “n.i” throughout.

On to `CC(C=CCC(C)CCC=C(C)C(=O)C1=C(O)C(C)N(C)C1=O)=CC(C)C(O)C(=O)O` (stereo not shown) [compound 4, Colpomenoic acid A], for which the MIC result in assay [1] (setting [3]) and in assay [2] was “n.i” in each case.

For `CC(C=CCC(C)C=CC=C(C)C(=O)C1=C(O)C(C)N(C)C1=O)=CC(C)C(O)C(=O)O` (stereo not shown) [compound 5, Colpomenoic acid B], the minimum inhibitory concentration (MIC) entry in assay [1] (setting [3]) and in assay [2] was “n.i” throughout.

Values taken from paper PMC8224775, “Five Tetramic Acid Derivatives Isolated from the Iranian Fungus Colpoma quercinum CCTU A372” (Biomolecules, 2021).
